Experimental data reported in ChEMBL document CHEMBL3102811, “Synthesis and anti-inflammatory activity of indole glucosinolates” (2014).

How the values were obtained:
Format in all cases: functional
THP-1 [1] = assay: Antiinflammatory activity in PMA-treated human THP1 cells assessed as LPS-induced TNFalpha secretion at 1 uM after 4 hrs by sandwich ELISA relative to control
THP-1 [2] = assay: Antiinflammatory activity in PMA-treated human THP1 cells assessed as LPS-induced TNFalpha secretion at 0.10 uM after 4 hrs by sandwich ELISA relative to control
THP-1 [3] = assay: Antiinflammatory activity in PMA-treated human THP1 cells assessed as inhibition of LPS-induced TNFalpha secretion at 1 uM after 4 hrs by sandwich ELISA relative to control; settings: THP-1, 4 h
THP-1 [4] = assay: Antiinflammatory activity in PMA-treated human THP1 cells assessed as LPS-induced TNFalpha secretion at 10 uM after 4 hrs by sandwich ELISA relative to control
THP-1 [5] = assay: Antiinflammatory activity in PMA-treated human THP1 cells assessed as inhibition of LPS-induced TNFalpha secretion at 15 uM after 4 hrs by sandwich ELISA relative to control; settings: THP-1, 4 h
THP-1 [6] = assay: Antiinflammatory activity in PMA-treated human THP1 cells assessed as LPS-induced TNFalpha secretion at 15 uM after 4 hrs by sandwich ELISA relative to control
THP-1 [7] = assay: Antiinflammatory activity in PMA-treated human THP1 cells assessed as inhibition of LPS-induced TNFalpha secretion at 10 uM after 4 hrs by sandwich ELISA relative to control; settings: THP-1, 4 h
THP-1 [8] = assay: Antiinflammatory activity in PMA-treated human THP1 cells assessed as inhibition of LPS-induced TNFalpha secretion at >=10 uM after 4 hrs by sandwich ELISA relative to control
THP-1 [9] = assay: Antiinflammatory activity in PMA-treated human THP1 cells assessed as inhibition of LPS-induced TNFalpha secretion at 0.5 uM after 4 hrs by sandwich ELISA relative to control; settings: THP-1, 4 h
THP-1 [10] = assay: Antiinflammatory activity in PMA-treated human THP1 cells assessed as LPS-induced TNFalpha secretion at 5 uM after 4 hrs by sandwich ELISA relative to control
THP-1 [11] = assay: Antiinflammatory activity in PMA-treated human THP1 cells assessed as LPS-induced TNFalpha secretion at 0.5 uM after 4 hrs by sandwich ELISA relative to control

SMILES | Activity (THP-1 [1]) [pg/mg] | Activity (THP-1 [2]) [pg/mg] | inhibition at 1 µM (THP-1 [3]) [%] | Activity (THP-1 [4]) [pg/mg] | inhibition at 15 µM (THP-1 [5]) [%] | Activity (THP-1 [6]) [pg/mg] | inhibition at 10 µM (THP-1 [7]) [%] | inhibition (INH) (THP-1 [8]) | inhibition at 0.5 µM (THP-1 [9]) [%] | Activity (THP-1 [10]) [pg/mg] | Activity (THP-1 [11]) [pg/mg]
COc1cccc2[nH]cc(C/C(=N\OS(=O)(=O)[O-])S[C@@H]3O[C@H](CO)[C@@H](O)[C@H](O)[C@H]3O)c12.[K+] | 187.45 | 214.36 | 24 | 146.53 | 46 | 135.01 | 41 |  |  |  | 
COn1cc(C/C(=N\OS(=O)(=O)[O-])S[C@@H]2O[C@H](CO)[C@@H](O)[C@H](O)[C@H]2O)c2ccccc21.[K+] | 228.9 | 251.69 | ≥ 24 | 181.1 |  | 169.06 |  | >=32% |  |  | 
O=S(=O)([O-])O/N=C(\Cc1c[nH]c2ccccc12)S[C@@H]1O[C@H](CO)[C@@H](O)[C@H](O)[C@H]1O.[K+] | 196.65 | 215.57 | ≥ 24 | 158.94 | 54 | 136.79 |  |  |  |  | 
Oc1cc(O)c2c(c1)OC(c1ccc(O)c(O)c1)C(O)C2 (centres undefined) [CATECHIN] |  |  |  |  | 48 | 255.94 |  |  | 37 | 282.65 | 303.98
